Measured values reported in PMC6136712, “Ex vivo drug sensitivity testing as a means for drug repurposing in esophageal adenocarcinoma” (PLoS ONE, 2018).
Counter-ions that a name gives are not always drawn. Like-named read-outs stand apart in the source and are kept apart here.

Test system: normal esophageal epithelium cell line EACN42
Test: FDA library drug sensitivity testing (CellTiter-Glo, 72 h), normal control cells
Assay type: cell-based, human
Set-up: key to DSS: modified drug sensitivity score (DSSmod) from dose-response curve fit
Details: for EC50: cell viability (ATP), max test concentration 10μM
Experimental: The normal esophageal epithelium cell line EACN42 was established in the Capobianco laboratory. The cell lines was derived from human normal epithelium and immortalized using HPV E6-E7.
Drug sensitivity testing (DST) was performed as described previously. […] Individual drugs were dissolved in 100% DMSO and tested in duplicates starting at a maximal test concentration of 10μM then over a 20,000-fold concentration range to generate dose response curves. Wells with assay buffer containing DMSO served as negative controls. 1000 exponentially growing cells were seeded per well in 384-well micro-titer plates and incubated in the presence of compounds in a humidified environment at 37°C and 5% CO2. After 72 hours of treatment, cell viability was assessed by measuring ATP levels via bioluminescence (CellTiter-Glo, Promega) according to manufactures recommendations. Interpretation of curve parameters was performed according to the modified drug sensitivity scoring (DSSmod) function developed by Swords et al. […] Given in this way, the sDSSmod incorporated information on each drug’s potency, efficacy, effect range and therapeutic index, making it possible to prioritize compounds over multiple parameters using a single numerical metric. […] All calculations and scoring routines are implemented in MatLab and additional curve fitting and statistical analyses are performed in GraphPad prism.

[1] = drug sensitivity score, EACN42 normal esophageal cells, 72 h
[2] = Homo sapiens, 72 h, EACN42 normal esophageal cells
[3] = EACN42 normal esophageal cells, 72 h

Compound | DSS [1] | further results
CN(N=O)C(=O)N[C@H]1C(O)O[C@H](CO)[C@@H](O)[C@@H]1O (mixture of isomers) [Streptozotocin] | 0 | –
COc1cc2c(cc1O)CC[C@@H]1[C@@H]2CC[C@]2(C)[C@@H](O)CC[C@@H]12 [2-Methoxyestradiol] | 0.26 | EC50 [2]: > 10000 nM
CC(=O)O[C@@]12CO[C@@H]1C[C@H](O)[C@@]1(C)C(=O)[C@H](O)C3=C(C)[C@@H](O)C[C@@](O)([C@@H](OC(=O)c4ccccc4)[C@H]21)C3(C)C [10-DAB] | 0.01 | EC50 [3]: 5480 nM
CC(=O)O[C@H]1CC[C@@]2(C)C(=CC[C@@H]3[C@@H]2CC[C@]2(C)C(c4cccnc4)=CC[C@@H]32)C1 [Abiraterone Acetate] | 0 | –
C[C@]12CC[C@H](O)CC1=CC[C@@H]1[C@@H]2CC[C@]2(C)C(c3cccnc3)=CC[C@@H]12 [Abiraterone] | 0 | –
Cl.Nc1ncnc2nc[nH]c12 [Adenine hydrochloride] | 0 | EC50 [3]: 10 nM
Nc1ncnc2nc[nH]c12.Nc1ncnc2nc[nH]c12.O=S(=O)(O)O [Adenine sulfate] | 0 | EC50 [3]: 250 nM
Nc1ncnc2[nH]cnc12 [Adenine] | 0 | –
CN(C)C/C=C/C(=O)Nc1cc2c(Nc3ccc(F)c(Cl)c3)ncnc2cc1O[C@H]1CCOC1 [Afatinib] | 0.12 | EC50 [2]: 4610 nM
CN(C)c1nc(N(C)C)nc(N(C)C)n1 [Altretamine] | 0 | –
CCC1(c2ccc(N)cc2)CCC(=O)NC1=O (stereo not drawn) [Aminoglutethimide] | 0 | –
O=C1CN2Cc3c(ccc(Cl)c3Cl)N=C2N1 [Anagrelide HCl] | 0 | EC50 [2]: 40 nM
CC(C)(C#N)c1cc(Cn2cncn2)cc(C(C)(C)C#N)c1 [Anastrozole] | 0 | EC50 [2]: 1590 nM
N#CC1(c2ccc(NC(=O)c3cccnc3NCc3ccncc3)cc2)CCCC1 [Apatinib] | 0 | EC50 [2]: 50 nM
C[C@@H](O[C@H]1OCCN(Cc2n[nH]c(=O)[nH]2)[C@H]1c1ccc(F)cc1)c1cc(C(F)(F)F)cc(C(F)(F)F)c1 [Aprepitant] | 0 | –
CO[C@H]1O[C@@H]2O[C@@]3(C)CC[C@H]4[C@H](C)CC[C@@H]([C@H]1C)[C@@]24OO3 [Artemether] | 0 | –
CC(=O)Oc1ccccc1C(=O)O [Aspirin] | 0 | treatment response in words [3]: low or no activity
COC(=O)N[C@H](C(=O)N[C@@H](Cc1ccccc1)[C@@H](O)CN(Cc1ccc(-c2ccccn2)cc1)NC(=O)[C@@H](NC(=O)OC)C(C)(C)C)C(C)(C)C.O=S(=O)(O)O [Atazanavir sulfate] | 0 | –
CNC(=O)c1ccccc1Sc1ccc2c(/C=C/c3ccccn3)n[nH]c2c1 [Axitinib] | 0 | –
CC[C@H]1OC(=O)[C@H](C)[C@@H](O[C@H]2C[C@@](C)(OC)[C@@H](O)[C@H](C)O2)[C@H](C)[C@@H](O[C@@H]2O[C@H](C)C[C@H](N(C)C)[C@H]2O)[C@](C)(O)C[C@@H](C)CN(C)[C@H](C)[C@@H](O)[C@]1(C)O [Azithromycin] | 0 | –
Cl.Cn1c(CCCC(=O)O)nc2cc(N(CCCl)CCCl)ccc21 [Bendamustine HCL] | 0 | –
O=C(O)CCCN1CCC(O[C@@H](c2ccc(Cl)cc2)c2ccccn2)CC1.O=S(=O)(O)c1ccccc1 [Bepotastine Besilate] | 0 | –

Compound | DSS [1] | further results
COc1c2ccoc2cc2oc(=O)ccc12 [Bergapten] | 0 | EC50 [2]: 50 nM
C[C@H]1C[C@H]2[C@@H]3CCC4=CC(=O)C=C[C@]4(C)[C@H]3C(=O)C[C@]2(C)[C@@]1(O)C(=O)CO [Betapar] | 0 | –
C=C(c1ccc(C(=O)O)cc1)c1cc2c(cc1C)C(C)(C)CCC2(C)C [Bexarotene] | 0.12 | EC50 [2]: 4290 nM
CC(O)(CS(=O)(=O)c1ccc(F)cc1)C(=O)Nc1ccc(C#N)c(C(F)(F)F)c1 (stereo not drawn) [Bicalutamide] | 0 | –
CCN1CCN(c2cc(-c3ccc(F)cc3)c3c(n2)CCCCCC3)CC1 [Blonanserin] | 0 | EC50 [2]: 40 nM
COc1cc(Nc2c(C#N)cnc3cc(OCCCN4CCN(C)CC4)c(OC)cc23)c(Cl)cc1Cl [Bosutinib] | 0 | –
CS(=O)(=O)OCCCCOS(C)(=O)=O [Busulfan] | 0 | –
CCCCCOC(=O)Nc1nc(=O)n([C@@H]2O[C@H](C)[C@@H](O)[C@H]2O)cc1F [Capecitabine] | 0 | EC50 [2]: 1000 nM
CN1C2=CC(=O)/C(=N\NC(N)=O)C=C2CC1S(=O)(=O)[O-].[Na+] (stereo not drawn) [Carbazochrome sodium sulfonate] | 0 | –
N.N.O=C([O-])C1(C(=O)[O-])CCC1.[Pt+2] [Carboplatin] | 3.68 | treatment response in words [3]: minimal treatment effects; EC50 [3]: 2370 nM
Cc1ccc(-c2cc(C(F)(F)F)nn2-c2ccc(S(N)(=O)=O)cc2)cc1 [Celecoxib] | 0 | –
CCN(CC)CCOc1ccc(C(=C(Cl)c2ccccc2)c2ccccc2)cc1 [Clomifene citrate] | 0 | –
Nc1cc(C(Cl)=C(Cl)Cl)c(S(N)(=O)=O)cc1S(N)(=O)=O [Clorsulon] | 0 | –
CC(=O)OCC(=O)[C@@]1(O)CC[C@H]2[C@@H]3CCC4=CC(=O)CC[C@]4(C)[C@H]3C(=O)C[C@@]21C [Cortisone acetate] | 0 | –
O=P1(N(CCCl)CCCl)NCCCO1 (stereo not drawn) [Cyclophosphamide monohydrate] | – | DSS: 0
CN(C)/N=N/c1[nH]cnc1C(N)=O [Dacarbazine] | 0 | –
Nc1ncn([C@H]2C[C@H](O)[C@@H](CO)O2)c(=O)n1 [Decitabine] | 0 | EC50 (Homo sapiens, EACN42 normal esophageal cells, 72 h): 170 nM
CC(=O)OCC(=O)[C@@]1(O)[C@H](C)C[C@H]2[C@@H]3CCC4=CC(=O)C=C[C@]4(C)[C@@]3(F)[C@@H](O)C[C@@]21C [Dexamethasone acetate] | 0 | –
C[C@@H]1C[C@H]2[C@@H]3CCC4=CC(=O)C=C[C@]4(C)[C@@]3(F)[C@@H](O)C[C@]2(C)[C@@]1(O)C(=O)CO [Dexamethasone] | 0 | –
CC/C(=C(/CC)c1ccc(O)cc1)c1ccc(O)cc1 [Diethylstilbestrol] | 0 | –
CCN[C@H]1C[C@H](C)S(=O)(=O)c2sc(S(N)(=O)=O)cc21 [Dorzolamide HCL] | 0.01 | –
C=C1/C(=C\C=C2/CCC[C@]3(C)[C@@H]([C@H](C)/C=C/[C@H](C)C(C)C)CC[C@@H]23)C[C@@H](O)C[C@@H]1O [Doxercalciferol] | 0 | EC50 [2]: 7 nM

Compound | DSS [1] | further results
CC1=NN(c2ccc(C)c(C)c2)C(=O)/C1=N\Nc1cccc(-c2cccc(C(=O)O)c2)c1O [Eltrombopag] | 0.32 | EC50 [2]: 4660 nM
CNC(=O)c1ccc(N2C(=S)N(c3ccc(C#N)c(C(F)(F)F)c3)C(=O)C2(C)C)cc1F [Enzalutamide] | 0 | –
CNC[C@H](O)c1ccc(O)c(O)c1 [Epinephrine bitartrate] | 0 | –
C#Cc1cccc(Nc2ncnc3cc(OCCOC)c(OCCOC)cc23)c1 [Erlotinib HCl] | 0 | –
COc1ccc2[n-]c([S@@+]([O-])Cc3ncc(C)c(OC)c3C)nc2c1.[Na+] [Esomeprazole sodium] | 0 | –
C[C@]12CC[C@@H]3c4ccc(O)cc4CC[C@H]3[C@@H]1CC[C@@H]2O [Estradiol] | 0 | –
C[C@]12CC[C@@H]3c4ccc(O)cc4CC[C@H]3[C@@H]1CCC2=O [Estrone] | 0 | –
O=C(c1ccc(OCCN2CCCCC2)cc1)c1c(-c2ccc(O)cc2)sc2cc(O)ccc12 [Evista] | 0 | –
C=C1C[C@@H]2[C@H](CC[C@]3(C)C(=O)CC[C@@H]23)[C@@]2(C)C=CC(=O)C=C12 [Exemestane] | – | DSS (72 h): 0
O=C1[C@H](CC[C@H](O)c2ccc(F)cc2)[C@@H](c2ccc(O)cc2)N1c1ccc(F)cc1 [Ezetimibe] | 0 | –
CC(=O)OCC(CCn1cnc2cnc(N)nc21)COC(C)=O [Famciclovir] | 0 | EC50 [2]: 1120 nM
Cc1nc(-c2ccc(OCC(C)C)c(C#N)c2)sc1C(=O)O [Febuxostat] | 0 | EC50 [2]: > 10000 nM
Cl.Cl.Fc1ccc(C(c2ccc(F)cc2)N2CCN(C/C=C/c3ccccc3)CC2)cc1 [Flunarizine 2HCl] | 0.03 | –
CC(C)C(=O)Nc1ccc([N+](=O)[O-])c(C(F)(F)F)c1 [Flutamide] | 0 | –
O=c1[nH]c(=O)n(C2CCCO2)cc1F (stereo not drawn) [Ftorafur] | 0 | –
C[C@]12CC[C@@H]3c4ccc(O)cc4C[C@@H](CCCCCCCCC[S+]([O-])CCCC(F)(F)C(F)(F)F)[C@H]3[C@@H]1CC[C@@H]2O (stereo partly drawn) [Fulvestrant] | 0 | –
COc1cc2ncnc(Nc3ccc(F)c(Cl)c3)c2cc1OCCCN1CCOCC1 [Gefitinib] | 0 | –
O=C(O)C1=CO[C@@H](O[C@@H]2O[C@H](CO)[C@@H](O)[C@H](O)[C@H]2O)[C@@H]2C(CO)=CC[C@H]12 [Geniposidic acid] | 0 | –
C[C@]12CCC(=O)C=C1CC[C@@H]1[C@@H]2[C@@H](O)C[C@@]2(C)[C@H]1CC[C@]2(O)C(=O)CO [Hydrocortisone] | 0 | –
NC(=O)NO [Hydroxyurea] | 0 | –
